In US5652100A, “Stably transfected rodent fibroblast cell lines expressing human GABA-A -receptors” (priority 1992, dated 1997):
Like-named read-outs stand apart in the source and are kept apart here.

Target: T1, recombinant GABAA receptor (α1 β1 γ2L) expressed by population A cells (Bos taurus, UniProt P08219+P08220+P22300)
T1 construct: expressed in transfected cells; clone 'population A'
T1 sequence (P08219 28-456): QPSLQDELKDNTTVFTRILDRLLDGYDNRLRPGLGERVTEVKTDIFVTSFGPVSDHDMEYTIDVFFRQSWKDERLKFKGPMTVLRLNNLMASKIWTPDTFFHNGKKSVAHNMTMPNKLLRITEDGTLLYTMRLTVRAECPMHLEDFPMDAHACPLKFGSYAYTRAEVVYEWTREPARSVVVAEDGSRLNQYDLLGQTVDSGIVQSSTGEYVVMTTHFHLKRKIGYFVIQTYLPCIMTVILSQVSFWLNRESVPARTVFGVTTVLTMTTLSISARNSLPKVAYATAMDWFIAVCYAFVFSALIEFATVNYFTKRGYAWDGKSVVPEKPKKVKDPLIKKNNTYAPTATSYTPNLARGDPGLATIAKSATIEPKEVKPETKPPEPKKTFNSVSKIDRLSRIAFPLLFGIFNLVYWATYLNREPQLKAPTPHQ
T1 sequence (P08220 26-474): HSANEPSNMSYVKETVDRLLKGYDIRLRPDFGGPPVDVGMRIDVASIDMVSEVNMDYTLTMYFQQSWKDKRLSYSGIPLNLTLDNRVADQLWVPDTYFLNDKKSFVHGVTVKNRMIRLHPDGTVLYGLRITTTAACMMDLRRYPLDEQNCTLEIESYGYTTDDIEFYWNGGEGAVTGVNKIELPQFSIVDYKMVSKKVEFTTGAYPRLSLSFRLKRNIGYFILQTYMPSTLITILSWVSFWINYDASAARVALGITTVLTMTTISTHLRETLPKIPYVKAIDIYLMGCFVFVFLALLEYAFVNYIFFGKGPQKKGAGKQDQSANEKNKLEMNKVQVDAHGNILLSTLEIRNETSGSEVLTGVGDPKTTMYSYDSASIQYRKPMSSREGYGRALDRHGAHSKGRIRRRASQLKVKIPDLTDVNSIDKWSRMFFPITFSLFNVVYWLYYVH
T1 sequence (P22300 40-475): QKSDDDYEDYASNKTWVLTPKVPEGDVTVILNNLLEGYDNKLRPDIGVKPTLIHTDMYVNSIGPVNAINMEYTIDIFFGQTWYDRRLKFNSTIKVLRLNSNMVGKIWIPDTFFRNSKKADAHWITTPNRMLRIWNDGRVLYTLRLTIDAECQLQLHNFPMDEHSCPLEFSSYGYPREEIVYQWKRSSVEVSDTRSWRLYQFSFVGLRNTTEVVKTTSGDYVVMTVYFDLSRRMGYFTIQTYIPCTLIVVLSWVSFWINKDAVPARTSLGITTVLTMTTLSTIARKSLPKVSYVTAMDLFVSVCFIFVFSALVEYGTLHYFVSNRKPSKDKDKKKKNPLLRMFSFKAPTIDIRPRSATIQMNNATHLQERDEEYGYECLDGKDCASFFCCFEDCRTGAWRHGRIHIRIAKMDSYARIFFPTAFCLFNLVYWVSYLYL
Type: cell-based, bovine
Text: The nature of the GABAA receptor expressed by population A cells has been extensively characterised by electrophysiological techniques, using whole cell patch clamp.

[1] = whole cell patch clamp, qualitative

NCCCC(=O)O [GABA, Gamma-amino butyric acid]
Hill coefficient of GABA concentration response curves (dexamethasone-induced cells, whole cell patch clamp): 1.9

Cc1nnc2ccc(-c3cccc(C(F)(F)F)c3)nn12 [CL218872]
potentiation of the response to GABA: potentiated

CN1CCc2cc3c(cc2[C@H]1[C@@H]1OC(=O)c2c1ccc1c2OCO1)OCO3 [bicuculline]
antagonism of the response to GABA [1]: antagonised

CC(=O)[C@H]1CC[C@H]2[C@@H]3CC[C@H]4C[C@H](O)CC[C@]4(C)[C@H]3C(=O)C[C@]12C [alphaxalone]
potentiation of the response to GABA [1]: potentiated

CCCC(C)C1(CC)C(=O)NC(=O)NC1=O (stereo not drawn) [pentobarbitone]
potentiation of the response to GABA [1]: potentiated

picrotoxin
antagonism of the response to GABA [1]: antagonised
